Results on 21 compounds are retold here after patent US20050020576A1, “Kappa agonist compounds and pharmaceutical formulations thereof” (priority 1996, published 2005).

One may read the Ki as a measure of affinity in units of concentration, obtained from inhibition or displacement.

The experiment concerns the target cloned human kappa receptor (Homo sapiens, UniProt P41145). Briefly: biochemical. Format: binding. On the set-up: (3H)-Diprenorphin, % / k [3H] Diprenorphin, %: dose or concentration left out as unconfirmed.

Counter-ions that a name gives are not always drawn. Like-named read-outs stand apart in the source and are kept apart here.

Sequence of cloned human kappa receptor (P41145 whole entry): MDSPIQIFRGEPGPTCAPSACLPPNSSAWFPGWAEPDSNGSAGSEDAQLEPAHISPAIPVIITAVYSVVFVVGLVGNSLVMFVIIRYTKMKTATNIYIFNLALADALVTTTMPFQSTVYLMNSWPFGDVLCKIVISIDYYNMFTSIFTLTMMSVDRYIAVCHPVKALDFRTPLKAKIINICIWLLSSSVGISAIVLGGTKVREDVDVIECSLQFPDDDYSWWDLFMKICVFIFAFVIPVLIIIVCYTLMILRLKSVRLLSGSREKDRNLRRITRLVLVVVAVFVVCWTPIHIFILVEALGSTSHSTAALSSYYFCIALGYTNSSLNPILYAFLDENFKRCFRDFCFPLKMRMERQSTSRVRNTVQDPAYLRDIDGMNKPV

`COC(=O)N1CCN(C(=O)Cc2ccc(C(F)(F)F)cc2)C(CN2CC[C@H](OC(=O)Cc3ccc(C(F)(F)F)cc3)C2)C1` (mixture of isomers) [Example 1j, Methyl-4-[(4-a,a,a-trifluoromethylphenyl)acetyl]-3-(R,S)-[3-(S)-(4′-α,α,α-trifluoro methylphenylacetate)-1-(pyrrolidinyl)methyl]-1-piperazinecarboxylate hydrochloride] came in with a Ki (Ki, nM 3H-Diprenorphin) of 13 nM. The same measure, in the same setting: the value for `COC(=O)N1CCN(C(=O)Cc2ccc(C(F)(F)F)cc2N)C(CN2CCC[C@H]2CO)C1` (mixture of isomers) [Example 1p, Methyl-4-[(2-amino-4-α,α,α-trifluoromethylphenyl)acetyl]-3-(R,S)-[(2-(S)-pyrrolidinemethanol)methyl]-1-piperazinecarboxylate hydrochloride] was 11 nM. As to `CC(=O)N1CCN(C(=O)Cc2ccc(S(C)(=O)=O)cc2)C(CN2CC[C@H](OC(=O)Cc3ccc(S(C)(=O)=O)cc3)C2)C1` (mixture of isomers) [Example 1u, 4-Acetyl-1-[(4-methylsulfonyl]phenyl)acetyl]-2-(R,S)-[3-(S)-(4′-methylsulfonylphenyl acetate)-1-(Pyrrolidinyl)methyl]piperazine hydrochloride], the inhibition constant (Ki) (Table IA, read-out: Ki(nM) (3H)-Diprenorphin) is 1780 nM. `COC(=O)N1CCN(C(=O)Cc2ccc(C(F)(F)F)cc2N(S(C)(=O)=O)S(C)(=O)=O)C(CN2CCCC2)C1` (racemic) [Example 1b, Methyl-4-[(2-[N,N-bis-methylsulfonamido]-4-trifluoromethyphenyl)acetyl]-3-(R,S)-[(1-pyrrolidinyl)-methyl]-1-piperazinecarboxylate dihydrochloride] gave a Ki (Ki, nM 3H-Diprenorphin) of 7 nM. With `CNS(=O)(=O)c1ccc(CC(=O)N2CCN(C(=O)OC)CC2CN2CCCC2)cc1` (racemic) [Example 1f, Methyl-4-[-4-[N-methylamino)sulfamyl]phenyl)acetyl]-3-(R,S)-[(1-pyrrolidinyl)methyl]-1-piperazinecarboxylate hydrochloride], for the setting “Ki, nM 3H-Diprenorphin”, the affinity, expressed as Ki, was 53.5 nM. Turning to `CC(=O)N1CCN(C(=O)Cc2ccccn2)C(CN2CCCC2)C1.Cl` (racemic) [Example 1gg, 4-Acetyl-1-[(2-pyridyl)acetyl]-2-(R,S)-[(1-pyrrolidinyl)methyl]piperazine hydrochloride], the “(3H)-Diprenorphin, %” value is reported as 27% @ 1 mM. Still for that read-out and setting: the value for `Cl.O=CN1CCN(C(=O)Cc2ccccn2)C(CN2CCCC2)C1` (racemic) [Example 1hh, 4-Formyl-1-[(2-pyridyl)acetyl]-2-(R,S)-[(1-pyrrolidinyl)methyl]piperazine hydrochloride] was 0% @ 1 mM. For `COc1cccc(C(CN2CCCC2)N(C)C(=O)Cc2ccccc2NS(C)(=O)=O)c1` (racemic) [Example 3uu, (R,S)-1-[2-(Methanesulfonylamino)phenyl-N-methylacetamido]-1-(3-methoxyphenyl)-2-(1-pyrrolidino)-ethane, methanesulfonic acid salt], the Ki (Ki (nM) [3H]-Diprenorphin κ) came out at 17.5 nM.

The compound `CN(C(=O)Cc1ccccc1NS(C)(=O)=O)C(CN1CCCC1)c1cccc(O)c1` (racemic) [Example 3vv, (R,S)-1-[2-(Methanesulfonylamino)phenyl-N-methylacetamido]-1-(3-hydroxyphenyl)-2-(1-pyrrolidino)-ethane, methanesulfonic acid salt] had a Ki (Ki (nM) [3H]-Diprenorphin κ) of 19.5 nM.

As for `CN(C(=O)Cc1ccc(C(F)(F)F)cc1NC(=O)/C=C\C(=O)O)C1CCCCC1N1CCCC1` (racemic) [Example 4b, (Z)-4-[2-((±)-trans-2-Amino-4-trifluoromethyl-N-methyl-N-[2-(1-pyrrolidinyl)-cyclohexyl]-phenylaetamido)]4-oxo-2-butenoic acid], the “[3H]-Diprenorphin, % @ 1 μM” value is 22% @ 1 μM.

Turning to `CS(=O)(=O)N1CCN(C(=O)Cc2ccc(C(F)(F)F)cc2)C(CN2CC[C@H](OC(=O)Cc3ccc(C(F)(F)F)cc3)C2)C1` (stereo partly drawn) [Example 1mm, 4-Methylsulphonyl-1-[(4-α,α,α-triflouromethylphenyl)acetyl]-2-(R,S)-[3-(S)-(4′-α,α,α-triflouromethylphenyl acetate)-1-(pyrrolidinyl)methyl]piperazine hydrochloride], where the note is “Ki, nM 3H-Diprenorphin”, the inhibition constant Ki came to 287 nM.

With `CN(C(=O)Cc1ccccc1NC(=O)/C=C\C(=O)O)[C@H](CN1CCCC1)c1ccccc1` [Example 3aa, (Z)-4-[2-(2-Aminophenyl)-N-methyl-N-[(1S)-1-phenyl)-2-(1-pyrrolidinyl]-ethyl]acetamido]4-oxo-2-butenoic acid hemimaleate], the Ki (read-out: Ki (nM) [3H]-Diprenorphin κ) was determined as 5280 nM. With `CN(C(=O)Cc1ccc(C(F)(F)F)cc1NCC(=O)O)[C@H](CN1CCCC1)c1ccccc1` [Example 3b, N-[(4-Trifluoromethylphenyl)-N-methyl-N-{[1S]-1-phenyl-2-[1-pyrrolidinyl)]ethyl}acetamido]glycine hydrochloride], the inhibition constant (Ki) (Table IIIA, read-out: Ki (nM) [3H]-Diprenorphin κ) amounted to 464 nM. Take `CN(C(=O)Cc1ccccc1NS(C)(=O)=O)[C@H](CN1CCCC1)c1cccc(NS(C)(=O)=O)c1` [Example 3pp, 2-(2-Methanesulfonamidophenyl)-N-methyl-N-[(1S)-1-(3-methanesulfon-amidophenyl)-2-(1-pyrrolidinyl)ethyl]acetamide Hydrochloride]: the Ki (Ki (nM) [3H]-Diprenorphin κ) was 4.6 nM. On the same count and under the same terms, for `CC(C)C(=O)Nc1cccc([C@@H](CN2CCCC2)N(C)C(=O)Cc2ccccc2NC(=O)C(C)C)c1` [Example 3qq, 2-(2-Iso-butyramidophenyl)-N-methyl-N-[(1S)-1-(3-isobutyramido-phenyl)-2-(1-pyrrolidinyl)ethyl]acetamide Methanesulfonic acid salt] the value was 21 nM. The same measure, in the same setting: the value for `COc1cc(CC(=O)N(C)[C@H](CN2CCCC2)c2ccccc2)c(S(=O)(=O)N(C)Cc2ccccc2)cc1OC` [Example 3xx, 2-(2-N-Benzyl-2-N-methylsulfamoyl-3,4-dimethoxyphenyl)-N-methyl-N-[(1S)-1-phenyl-2-(1-pyrrolidinyl)ethyl]acetamide hydrochloride] was 0.83 nM; that for `CCOC(=O)/C=C/C(=O)Nc1cc(Cl)c(Cl)cc1CC(=O)N(C)[C@H](CN1CCCC1)c1ccccc1` [Example 3y, (E) Ethyl 4-[2-(2-amino-4,5-dichlorophenyl)-N-methyl-N-[(1S)-1-phenyl)-2-[1-pyrrolidinyl]ethyl]acetamido]4-oxo-2-butenoate hydrochloride] was 0.35 nM. On the same count and under the same terms, for `CN(C(=O)Cc1cc2c(cc1S(=O)(=O)N(C)Cc1ccccc1)OCO2)[C@H](CN1CCCC1)c1ccccc1` [Example 131, 2-[2-(N-Benzyl-N-methylsulfamoyl)-4,5-methylenedioxyphenyl]-N-methyl-N-[(1S)-1-phenyl-2-[(1-pyrrolidinyl)ethyl]]acetamide] the value was 0.22 nM; for `COc1cc(CC(=O)N(C)[C@H](CN2CC[C@H](O)C2)c2ccccc2)c(S(=O)(=O)N2CCCC2)cc1OC` [Example 135, 2-[2-(N-Pyrrolidinesulfamoyl)-4,5-dimethoxyphenyl]-N-methyl-N-[(1S)-1-phenyl-2-[1-(3S)-(3-hydroxypyrrolidinyl)ethyl]]acetamide], 0.66 nM. As to `COc1cc(CC(=O)N(C)[C@H](CN2CC[C@H](O)C2)c2ccccc2)c(S(=O)(=O)N(C)C)cc1OC` [Example 137, 2-[2-(N-Dimethylsulfamoyl)-4,5-dimethoxyphenyl]-N-methyl-N-[(1S)-1-phenyl-2-[1-(3S)-(3-hydroxypyrrolidinyl)ethyl]]acetamide], for the setting “read-out: Ki(nM) [3H]-Diprenorphin κ”, the Ki turned out to be 0.83 nM. Consider `COc1cc(CC(=O)N(C)[C@H](CN2CC[C@H](O)C2)c2ccccc2)c(S(=O)(=O)N2CCN(C)CC2)cc1OC` [Example 139], for which the Ki (Ki (nM) [3H]-Diprenorphin κ) was found to be 4.2 nM.
